Source: patent US10584128B2, “Bicyclic dihydropyrimidine-carboxamide derivatives as Rho-Kinase inhibitors” (CHIESI FARMACEUTICI S.p.A., priority 2016, dated 2020)

How the values were obtained:
Rho kinase 1 = Rho kinase 1 (Homo sapiens, UniProt Q13464); assay: In vitro Rho kinase inhibitory activity assay (ADP-Glo kit, Myelin Basic Protein substrate); format: biochemical; conditions: 10 μM ATP, 25° C., read-out: ROCK1 inhibitory activity (Ki, range of activity)
Summary of the method: (§1)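 ADP-Glo luminescence assay at 25 °C in 40 mM Tris pH 7.5, 20 mM MgCl2, 0.1 mg/ml BSA, 50 μM DTT, with 2.5 μM myelin basic protein, 10 μM ATP and 1% DMSO. Compound and ROCK1 or ROCK2 were preincubated 30 min, then reacted 1 h. IC50 came from a sigmoidal fit; Ki via Cheng-Prusoff.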

Rho kinase 2 = Rho kinase 2 (Homo sapiens, UniProt O75116); assay: as above; format: biochemical; conditions: 10 μM ATP, 25° C., read-out: ROCK2 inhibitory activity (Ki, range of activity)
Sequence of Rho kinase 2 (O75116 whole entry): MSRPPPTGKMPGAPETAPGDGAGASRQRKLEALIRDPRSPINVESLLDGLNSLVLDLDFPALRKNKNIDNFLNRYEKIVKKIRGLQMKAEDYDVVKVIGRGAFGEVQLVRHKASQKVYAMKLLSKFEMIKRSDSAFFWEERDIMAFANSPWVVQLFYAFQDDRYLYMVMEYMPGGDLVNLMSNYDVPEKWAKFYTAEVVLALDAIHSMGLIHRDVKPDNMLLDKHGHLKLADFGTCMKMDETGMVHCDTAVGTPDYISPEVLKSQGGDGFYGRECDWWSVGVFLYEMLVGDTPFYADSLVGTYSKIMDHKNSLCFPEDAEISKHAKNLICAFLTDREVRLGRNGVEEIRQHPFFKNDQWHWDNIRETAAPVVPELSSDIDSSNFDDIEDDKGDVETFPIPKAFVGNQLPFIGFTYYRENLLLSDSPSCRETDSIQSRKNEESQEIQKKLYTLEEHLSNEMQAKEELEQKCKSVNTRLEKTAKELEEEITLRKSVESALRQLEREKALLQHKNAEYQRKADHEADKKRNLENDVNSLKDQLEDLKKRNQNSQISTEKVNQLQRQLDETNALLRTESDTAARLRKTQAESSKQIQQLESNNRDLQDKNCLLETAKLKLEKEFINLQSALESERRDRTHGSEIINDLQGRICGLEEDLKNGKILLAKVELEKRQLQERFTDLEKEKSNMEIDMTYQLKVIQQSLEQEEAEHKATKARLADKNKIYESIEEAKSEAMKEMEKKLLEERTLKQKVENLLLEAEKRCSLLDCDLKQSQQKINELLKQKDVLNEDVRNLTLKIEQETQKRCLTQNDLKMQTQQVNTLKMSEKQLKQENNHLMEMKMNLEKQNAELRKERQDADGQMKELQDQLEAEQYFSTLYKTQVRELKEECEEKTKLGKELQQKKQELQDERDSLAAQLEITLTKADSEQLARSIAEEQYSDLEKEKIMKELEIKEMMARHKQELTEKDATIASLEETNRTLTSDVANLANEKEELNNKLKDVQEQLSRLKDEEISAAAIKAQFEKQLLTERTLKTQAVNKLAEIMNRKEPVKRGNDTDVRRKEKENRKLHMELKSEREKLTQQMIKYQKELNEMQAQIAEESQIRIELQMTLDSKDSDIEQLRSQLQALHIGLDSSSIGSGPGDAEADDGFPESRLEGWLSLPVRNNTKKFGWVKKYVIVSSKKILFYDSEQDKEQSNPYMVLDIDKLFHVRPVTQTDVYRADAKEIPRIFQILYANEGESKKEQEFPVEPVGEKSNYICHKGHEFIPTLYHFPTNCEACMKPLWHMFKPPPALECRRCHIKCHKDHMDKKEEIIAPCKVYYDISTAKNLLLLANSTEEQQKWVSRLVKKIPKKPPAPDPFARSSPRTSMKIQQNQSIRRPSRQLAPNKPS
Summary of the method: as §1

Sequence of Rho kinase 1 (Q13464 whole entry): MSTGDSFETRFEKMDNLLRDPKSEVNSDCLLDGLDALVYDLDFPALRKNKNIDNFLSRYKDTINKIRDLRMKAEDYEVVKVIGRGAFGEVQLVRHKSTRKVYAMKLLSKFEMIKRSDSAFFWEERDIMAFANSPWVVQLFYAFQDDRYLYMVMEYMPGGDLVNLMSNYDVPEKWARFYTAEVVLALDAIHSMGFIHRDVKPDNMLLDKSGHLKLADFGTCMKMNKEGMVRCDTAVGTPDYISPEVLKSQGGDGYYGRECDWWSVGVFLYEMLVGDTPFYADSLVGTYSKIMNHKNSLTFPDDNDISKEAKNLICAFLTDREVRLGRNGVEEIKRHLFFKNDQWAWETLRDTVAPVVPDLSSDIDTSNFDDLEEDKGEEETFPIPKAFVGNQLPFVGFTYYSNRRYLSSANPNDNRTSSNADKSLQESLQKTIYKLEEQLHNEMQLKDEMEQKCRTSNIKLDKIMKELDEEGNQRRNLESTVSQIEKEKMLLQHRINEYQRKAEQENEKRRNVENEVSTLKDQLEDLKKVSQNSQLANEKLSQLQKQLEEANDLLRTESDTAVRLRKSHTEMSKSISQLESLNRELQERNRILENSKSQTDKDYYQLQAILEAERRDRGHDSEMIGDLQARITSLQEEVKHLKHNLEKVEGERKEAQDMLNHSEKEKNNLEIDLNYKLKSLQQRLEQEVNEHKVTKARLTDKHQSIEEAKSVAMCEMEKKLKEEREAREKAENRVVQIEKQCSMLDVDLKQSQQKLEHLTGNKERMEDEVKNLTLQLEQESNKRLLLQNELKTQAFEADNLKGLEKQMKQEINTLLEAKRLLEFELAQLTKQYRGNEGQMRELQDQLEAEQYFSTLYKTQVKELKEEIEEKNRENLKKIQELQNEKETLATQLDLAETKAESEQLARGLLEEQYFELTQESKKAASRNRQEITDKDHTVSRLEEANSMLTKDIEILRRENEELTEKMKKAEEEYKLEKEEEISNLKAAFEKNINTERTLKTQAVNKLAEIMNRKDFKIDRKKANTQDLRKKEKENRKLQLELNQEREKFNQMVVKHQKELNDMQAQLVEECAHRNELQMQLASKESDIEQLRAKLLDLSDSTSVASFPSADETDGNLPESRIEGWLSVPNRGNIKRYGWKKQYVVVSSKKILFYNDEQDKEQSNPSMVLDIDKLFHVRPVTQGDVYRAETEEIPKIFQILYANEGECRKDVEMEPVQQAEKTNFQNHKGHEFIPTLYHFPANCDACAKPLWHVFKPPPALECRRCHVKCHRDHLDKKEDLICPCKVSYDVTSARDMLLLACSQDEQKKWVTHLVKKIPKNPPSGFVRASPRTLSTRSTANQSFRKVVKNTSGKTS

Structure (SMILES)	Ki (Rho kinase 1) [µM]	Ki (Rho kinase 2) [µM]
CC1=C(C(=O)Nc2ccc3cnccc3c2)C(c2ccc(C(F)(F)F)c(F)c2)n2nc(N)cc2N1 (single isomer, unassigned) [130B]	< 0.05	< 0.05
CC1=C(C(=O)Nc2ccc3cnccc3c2)C(c2cnc(-c3ccccc3)o2)n2nc(CO)cc2N1 (stereo not shown) [Example 49, 2-(hydroxymethyl)-N-(isoquinolin-6-yl)-5-methyl-7-(2-phenyloxazol-5-yl)-4,7-dihydropyrazolo[1,5-a]pyrimidine-6-carboxamide]	0.05 to 0.5	< 0.05
CC1=C(C(=O)Nc2ccc3[nH]ncc3c2)C(c2ccc(F)cc2)n2nnnc2N1 (single isomer, unassigned) [Example 23B, 7-(4-fluorophenyl)-N-(1H-indazol-5-yl)-5-methyl-4,7-dihydrotetrazolo[1,5-a]pyrimidine-6-carboxamide]	0.05 to 0.5	0.05 to 0.5
CC1=C(C(=O)Nc2ccc3cnccc3c2)C(c2ccc(C(F)(F)F)c(F)c2)n2nc(CN(C)C)cc2N1 (single isomer, unassigned) [Example 94B, 2-((dimethylamino)methyl)-7-(3-fluoro-4-(trifluoromethyl)phenyl)-N-(isoquinolin-6-yl)-5-methyl-4,7-dihydropyrazolo[1,5-a]pyrimidine-6-carboxamide]	< 0.05	< 0.05
CC1=C(C(=O)Nc2ccc3[nH]ncc3c2)C(c2ccc(F)cc2)n2nc(C#N)cc2N1 (stereo not shown) [Example 31, 2-cyano-7-(4-fluorophenyl)-N-(1H-indazol-5-yl)-5-methyl-4,7-dihydropyrazolo[1,5-a]pyrimidine-6-carboxamide]	< 0.05	< 0.05
CC1=C(C(=O)Nc2ccc3[nH]ncc3c2)C(C2CCN(C)CC2)n2nc(C(F)(F)F)cc2N1 (stereo not shown) [Example 33, N-(1H-indazol-5-yl)-5-methyl-7-(1-methylpiperidin-4-yl)-2-(trifluoromethyl)-4,7-dihydropyrazolo[1,5-a]pyrimidine-6-carboxamide]	> 0.5	> 0.5
CCOC(=O)c1cnn2c1NC(C)=C(C(=O)Nc1ccc3[nH]ncc3c1)C2c1ccc(F)cc1 (stereo not shown) [Example 17, ethyl 6-((1H-indazol-5-yl)carbamoyl)-7-(4-fluorophenyl)-5-methyl-4,7-dihydropyrazolo[1,5-a]pyrimidine-3-carboxylate]	> 0.5	> 0.5
CC1=C(C(=O)Nc2ccc3[nH]ncc3c2)C(c2ccc(C(F)(F)F)cc2)n2nc(C(=O)N3CCN(C)CC3)cc2N1 (stereo not shown) [Example 76, N-(1H-indazol-5-yl)-5-methyl-2-(4-methylpiperazine-1-carbonyl)-7-(4-(trifluoromethyl)phenyl)-4,7-dihydropyrazolo[1,5-a]pyrimidine-6-carboxamide]	< 0.05	< 0.05
CCOC(=O)c1cc2n(n1)C(c1nc3ccccc3s1)C(C(=O)Nc1ccc3cnccc3c1)=C(C)N2 (stereo not shown) [Example 8, ethyl 7-(benzo[d]thiazol-2-yl)-6-(isoquinolin-6-ylcarbamoyl)-5-methyl-4,7-dihydropyrazolo[1,5-a]pyrimidine-2-carboxylate]	< 0.05	< 0.05
CC1=C(C(=O)Nc2cc3cn[nH]c3cc2F)C(c2ccc(C(F)(F)F)c(F)c2)n2nnnc2N1 (single isomer, unassigned) [Example 40A, N-(6-fluoro-1H-indazol-5-yl)-7-(3-fluoro-4-(trifluoromethyl)phenyl)-5-methyl-4,7-dihydrotetrazolo[1,5-a]pyrimidine-6-carboxamide]	< 0.05	< 0.05
CC1=C(C(=O)Nc2ccc3[nH]ncc3c2)C(c2ccc(F)cc2)n2nc(C(C)(C)C)cc2N1 (stereo not shown) [Example 29, 2-(tert-butyl)-7-(4-fluorophenyl)-N-(1H-indazol-5-yl)-5-methyl-4,7-dihydropyrazolo[1,5-a]pyrimidine-6-carboxamide]	< 0.05	< 0.05
CC1=C(C(=O)Nc2ccc3cnccc3c2)C(c2ccc3ccsc3c2)n2nc(CO)cc2N1 (stereo not shown) [Example 46, 7-(benzo[b]thiophen-6-yl)-2-(hydroxymethyl)-N-(isoquinolin-6-yl)-5-methyl-4,7-dihydropyrazolo[1,5-a]pyrimidine-6-carboxamide]	< 0.05	< 0.05
CC1=C(C(=O)Nc2ccc3cnccc3c2)C(C2Cc3ccccc3C2)n2nc(CN(C)C)cc2N1 (single isomer, unassigned) [Example 124a, 7-(2,3-dihydro-1H-inden-2-yl)-2-((dimethylamino)methyl)-N-(isoquinolin-6-yl)-5-methyl-4,7-dihydropyrazolo[1,5-a]pyrimidine-6-carboxamide]	> 0.5	> 0.5
CC1=C(C(=O)Nc2ccc3cnccc3c2)C(c2ccc(C(F)(F)F)c(F)c2)n2nc(C3CCN(C(=O)CCN4CCCCC4)CC3)cc2N1 (stereo not shown) [Example 135, 7-(3-fluoro-4-(trifluoromethyl)phenyl)-N-(isoquinolin-6-yl)-5-methyl-2-(1-(3-(piperidin-1-yl)propanoyl)piperidin-4-yl)-4,7-dihydropyrazolo[1,5-a]pyrimidine-6-carboxamide]	< 0.05	< 0.05
CCOC(=O)c1cc2n(n1)C(C1CCN(C)CC1)C(C(=O)Nc1ccc3[nH]ncc3c1)=C(C)N2 (stereo not shown) [Example 12, ethyl 6-((1H-indazol-5-yl)carbamoyl)-5-methyl-7-(1-methylpiperidin-4-yl)-4,7-dihydropyrazolo[1,5-a]pyrimidine-2-carboxylate]	> 0.5	> 0.5
CC1=C(C(=O)Nc2ccc3[nH]ncc3c2)C(c2ccc(C(F)(F)F)cc2)n2nc(C(=O)O)cc2N1 (stereo not shown) [Example 73, 6-((1H-indazol-5-yl)carbamoyl)-5-methyl-7-(4-(trifluoromethyl)phenyl)-4,7-dihydropyrazolo[1,5-a]pyrimidine-2-carboxylic acid]	< 0.05	< 0.05
CC1=C(C(=O)Nc2ccc3cnccc3c2)C(c2ccc(C)c(F)c2)n2nc(CN(C)C)cc2N1 (single isomer, unassigned) [Example 110B, 2-((dimethylamino)methyl)-7-(3-fluoro-4-methylphenyl)-N-(isoquinolin-6-yl)-5-methyl-4,7-dihydropyrazolo[1,5-a]pyrimidine-6-carboxamide]	< 0.05	< 0.05
CC1=C(C(=O)Nc2ccc3[nH]ncc3c2)C(c2ccc(F)cc2)n2nc(C)cc2N1 (stereo not shown) [Example 28, 7-(4-fluorophenyl)-N-(1H-indazol-5-yl)-2,5-dimethyl-4,7-dihydropyrazolo[1,5-a]pyrimidine-6-carboxamide]	< 0.05	< 0.05

Second part, the molecule after the results:

Ki (Rho kinase 1) [µM]	Ki (Rho kinase 2) [µM]	Structure (SMILES)
< 0.05	< 0.05	CC1=C(C(=O)Nc2ccc3cnccc3c2)C(c2ccc(C(F)(F)F)c(F)c2)n2nc(C(=O)N(C)C3CCN(C)CC3)cc2N1 (stereo not shown) [Example 88, 7-(3-fluoro-4-(trifluoromethyl)phenyl)-N6-(isoquinolin-6-yl)-N2,5-dimethyl-N2-(1-methylpiperidin-4-yl)-4,7-dihydropyrazolo[1,5-a]pyrimidine-2,6-dicarboxamide]
< 0.05	< 0.05	CC1=C(C(=O)Nc2ccc3cnccc3c2)C(c2ccc(C(F)(F)F)c(F)c2)n2nc(C(=O)NC3CC3)cc2N1 (stereo not shown) [Example 125, N2-cyclopropyl-7-(3-fluoro-4-(trifluoromethyl)phenyl)-N6-(isoquinolin-6-yl)-5-methyl-4,7-dihydropyrazolo[1,5-a]pyrimidine-2,6-dicarboxamide]
< 0.05	< 0.05	CC1=C(C(=O)Nc2ccc3cnccc3c2)C(c2ccc(C(F)(F)F)c(F)c2)n2nc(NC(=O)CCN3CCCCC3)cc2N1 (single isomer, unassigned) [131A]
< 0.05	< 0.05	CC1=C(C(=O)Nc2ccc3cnccc3c2)C(c2ccc(C(F)(F)F)c(F)c2)n2nc(C(=O)N(C)CC3CCN(C)CC3)cc2N1 (stereo not shown) [Example 85, 7-(3-fluoro-4-(trifluoromethyl)phenyl)-N6-(isoquinolin-6-yl)-N2,5-dimethyl-N2-((1-methylpiperidin-4-yl)methyl)-4,7-dihydropyrazolo[1,5-a]pyrimidine-2,6-dicarboxamide]
< 0.05	< 0.05	CC1=C(C(=O)Nc2ccc3cnccc3c2)C(c2ccc(C(F)(F)F)c(F)c2)n2nc(C(=O)N(C)CCN3CCOCC3)cc2N1 (stereo not shown) [Example 83, 7-(3-fluoro-4-(trifluoromethyl)phenyl)-N6-(isoquinolin-6-yl)-N2,5-dimethyl-N2-(2-morpholinoethyl)-4,7-dihydropyrazolo[1,5-a]pyrimidine-2,6-dicarboxamide]
< 0.05	< 0.05	CC1=C(C(=O)Nc2ccc3cnccc3c2)C(c2ccc(C(F)(F)F)c(F)c2)n2nc(C(=O)NCC3CCN(C)CC3)cc2N1 (stereo not shown) [Example 84, 7-(3-fluoro-4-(trifluoromethyl)phenyl)-N6-(isoquinolin-6-yl)-5-methyl-N2-((1-methylpiperidin-4-yl)methyl)-4,7-dihydropyrazolo[1,5-a]pyrimidine-2,6-dicarboxamide]
< 0.05	< 0.05	CC(=O)N1CCN(Cc2cc3n(n2)C(c2ccc(C(F)(F)F)c(F)c2)C(C(=O)Nc2ccc4cnccc4c2)=C(C)N3)CC1 (stereo not shown) [Example 109, 2-((4-acetylpiperazin-1-yl)methyl)-7-(3-fluoro-4-(trifluoromethyl)phenyl)-N-(isoquinolin-6-yl)-5-methyl-4,7-dihydropyrazolo[1,5-a]pyrimidine-6-carboxamide]
< 0.05	< 0.05	CC1=C(C(=O)Nc2ccc3cnccc3c2)C(c2ccc(C(F)(F)F)c(F)c2)n2nc(NC(=O)CN3CCCC3)cc2N1 (stereo not shown) [Example 132, 7-(3-fluoro-4-(trifluoromethyl)phenyl)-N-(isoquinolin-6-yl)-5-methyl-2-(2-(pyrrolidin-1-yl)acetamido)-4,7-dihydropyrazolo[1,5-a]pyrimidine-6-carboxamide]
